In ChEMBL document CHEMBL1201862, “PubChem BioAssay data set” (2004):
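Step 1: Grow cells in 96-well plates. Step 2: Expose to compound for 48 hours at 5 concentrations. Step 3: Interpolate endpoints linearly; if unreached, use highest concentration. The concentration for 50% growth inhibition is given as GI50.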 The source made the active and inactive calls. Cut-off read from the data, not from the text of the source: active = GI50 up to about 1.1 µM and inactive = higher.

What was measured:
Assay in all cases: growth of human tumour cells (NCI), 48 h
[1] = test system: ACHN
[2] = test system: NCI-H226
[3] = test system: RPMI-8226
[4] = test system: SF-539
[5] = test system: SK-OV-3
[6] = test system: A498
[7] = test system: A549
[8] = test system: U-251
[9] = test system: TK-10
[10] = test system: HCC 2998
[11] = test system: CAKI-1
[12] = test system: RXF 393
[13] = test system: SK-MEL-5
[14] = test system: UACC-62
[15] = test system: 786-0
[16] = test system: UO-31
[17] = test system: OVCAR-8
[18] = test system: PC-3

Structure (SMILES)	GI50 [1]	GI50 [2]	GI50 [3]	GI50 [4]	GI50 [5]	GI50 [6]	GI50 [7]	GI50 [8]	GI50 [9]	GI50 [10]	GI50 [11]	GI50 [12]	GI50 [13]	GI50 [14]	GI50 [15]	GI50 [16]	GI50 [17]	GI50 [18]
O=C(CC1=Nc2nnc(-c3nnc4n3C(=O)C(CC(=O)C3CC3)=N4)n2C1=O)C1CC1	> 100 µM (inactive)	> 100 µM (inactive)	> 100 µM (inactive)	> 100 µM (inactive)	> 100 µM (inactive)	> 100 µM (inactive)	> 100 µM (inactive)	> 100 µM (inactive)	> 100 µM (inactive)	> 100 µM (inactive)	> 100 µM (inactive)	> 100 µM (inactive)	> 100 µM (inactive)	> 100 µM (inactive)	> 100 µM (inactive)	> 100 µM (inactive)		
COC(=O)/C(=N/Nc1cccc(Cl)c1)C(C(=O)C(=O)Nc1cccc(Cl)c1C)c1nc2ccccc2nc1C (stereo unspecified)	11.6 µM (inactive)		88.5 µM (inactive)	59.2 µM (inactive)	> 100 µM (inactive)	> 100 µM (inactive)	63.7 µM (inactive)		> 100 µM (inactive)	43.8 µM (inactive)	52.6 µM (inactive)	> 100 µM (inactive)	36 µM (inactive)	24.6 µM (inactive)	> 100 µM (inactive)	20.1 µM (inactive)	> 100 µM (inactive)	
O=S(=O)([N-]c1nc2ccccc2nc1-[n+]1ccccc1)c1ccccc1	> 100 µM (inactive)	> 100 µM (inactive)	74 µM (inactive)	> 100 µM (inactive)	> 100 µM (inactive)		> 100 µM (inactive)		71.4 µM (inactive)	> 100 µM (inactive)	> 100 µM (inactive)	> 100 µM (inactive)	> 100 µM (inactive)	93.1 µM (inactive)	> 100 µM (inactive)	> 100 µM (inactive)	68.5 µM (inactive)	> 100 µM (inactive)
N#C/C(=C\c1ccc(O)c(O)c1)C(=O)NC1CCC(CC2CCC(NC(=O)/C(C#N)=C/c3ccc(O)c(O)c3)CC2)CC1 (stereo unspecified)	0.718 µM (active)	4.38 µM (inactive)	0.693 µM (active)	0.536 µM (active)	3.82 µM (inactive)	4.7 µM (inactive)	0.466 µM (active)	0.973 µM (active)	4.02 µM (inactive)	2.24 µM (inactive)	2.04 µM (inactive)	2.29 µM (inactive)	1.93 µM (inactive)	1.59 µM (inactive)	1.27 µM (inactive)	1.77 µM (inactive)	0.459 µM (active)	
COC(=O)/C(=C/c1ccc(OC)cc1)C(C(=O)O)=C(C)C		> 100 µM (inactive)	> 100 µM (inactive)	> 100 µM (inactive)	> 100 µM (inactive)	> 100 µM (inactive)	> 100 µM (inactive)	> 100 µM (inactive)	> 100 µM (inactive)	> 100 µM (inactive)	> 100 µM (inactive)	> 100 µM (inactive)	> 100 µM (inactive)	> 100 µM (inactive)	> 100 µM (inactive)	> 100 µM (inactive)	> 100 µM (inactive)	
C1CN2N3CCCC23C1 (stereo unspecified)	> 100 µM (inactive)	> 100 µM (inactive)	> 100 µM (inactive)	> 100 µM (inactive)	> 100 µM (inactive)	> 100 µM (inactive)	> 100 µM (inactive)	> 100 µM (inactive)	> 100 µM (inactive)	> 100 µM (inactive)	> 100 µM (inactive)	> 100 µM (inactive)	> 100 µM (inactive)	> 100 µM (inactive)	> 100 µM (inactive)	> 100 µM (inactive)	> 100 µM (inactive)	
O=[PH](O)c1ccccn1	> 100 µM (inactive)	> 100 µM (inactive)	> 100 µM (inactive)	> 100 µM (inactive)	> 100 µM (inactive)	> 100 µM (inactive)	> 100 µM (inactive)	> 100 µM (inactive)	> 100 µM (inactive)	> 100 µM (inactive)	> 100 µM (inactive)	> 100 µM (inactive)	> 100 µM (inactive)	> 100 µM (inactive)	> 100 µM (inactive)	> 100 µM (inactive)	> 100 µM (inactive)	
C/C=C/C1=C(Cl)C(=O)[C@@H](Cl)[C@@]1(O)C(=O)OC [(+)-CRYPTOSPORIPSIN]	2.41 µM (inactive)	10.2 µM (inactive)	2.28 µM (inactive)	2.19 µM (inactive)	15.1 µM (inactive)	5.77 µM (inactive)	9.86 µM (inactive)	5.02 µM (inactive)	3.13 µM (inactive)	3.28 µM (inactive)	2.39 µM (inactive)	2.13 µM (inactive)	5.73 µM (inactive)	1.65 µM (inactive)	4.94 µM (inactive)	5.61 µM (inactive)	2.08 µM (inactive)	
O=C(OCc1ccccc1)N1N=NC2C3CC(OCc4ccccc4)(OCc4ccccc4)C(O3)C21 (stereo unspecified)	29.6 µM (inactive)	12.6 µM (inactive)	7.24 µM (inactive)	32.7 µM (inactive)	99.3 µM (inactive)	41.7 µM (inactive)	17.3 µM (inactive)	40.6 µM (inactive)		27 µM (inactive)	25.7 µM (inactive)	9.64 µM (inactive)	9.66 µM (inactive)	17.1 µM (inactive)	29.1 µM (inactive)	4.65 µM (inactive)		
Cc1cc(NS(=O)(=O)c2ccc(Nc3c4ccccc4nc4c(C(=O)N5CCN(CCOS(C)(=O)=O)CC5)cccc34)cc2)no1	> 100 µM (inactive)	> 100 µM (inactive)	> 100 µM (inactive)	> 100 µM (inactive)	> 100 µM (inactive)	> 100 µM (inactive)	> 100 µM (inactive)	> 100 µM (inactive)	> 100 µM (inactive)	> 100 µM (inactive)	> 100 µM (inactive)	> 100 µM (inactive)	> 100 µM (inactive)	> 100 µM (inactive)	> 100 µM (inactive)	> 100 µM (inactive)	> 100 µM (inactive)	
O=C1CCC(=O)C(C(=O)CCC(=O)Nc2cccc(Cl)c2)C1 (stereo unspecified)	> 100 µM (inactive)	> 100 µM (inactive)	> 100 µM (inactive)	> 100 µM (inactive)	> 100 µM (inactive)	> 100 µM (inactive)	> 100 µM (inactive)	> 100 µM (inactive)	> 100 µM (inactive)	> 100 µM (inactive)	> 100 µM (inactive)	> 100 µM (inactive)	> 100 µM (inactive)	> 100 µM (inactive)	> 100 µM (inactive)	> 100 µM (inactive)	> 100 µM (inactive)	
Cc1c(/C=N/N=C/c2[nH]c(C(=O)OC(C)(C)C)c(C)c2C)[nH]c(C(=O)OC(C)(C)C)c1C		> 100 µM (inactive)	90.6 µM (inactive)	> 100 µM (inactive)	> 100 µM (inactive)	> 100 µM (inactive)	> 100 µM (inactive)	> 100 µM (inactive)	> 100 µM (inactive)	> 100 µM (inactive)	> 100 µM (inactive)	> 100 µM (inactive)	> 100 µM (inactive)	> 100 µM (inactive)	50.8 µM (inactive)	> 100 µM (inactive)	98.9 µM (inactive)	
